Source: patent US7786174B2, “Methods and compounds for inhibiting amyloid deposits” (Bellus Health (International) Limited, priority 1999, dated 2010)

What was measured:
Synthetic human IAPP = target: T1, Synthetic human IAPP (Homo sapiens, UniProt P10997); experiment: Rate of amyloid fibril formation by Thioflavine T (ThT) spectroscopy; assay type: biochemical; conditions: ThT 62.5 μM; excitation 440 nm, emission 482 nm; readings from 5 min, over 4-6 h and after overnight at room temperature
T1 construct: Synthetic human IAPP (Bachem) was dissolved in 40% trifluoroethanol and freeze-dried; purchased Bachem; host or cells: chemical synthesis
T1 sequence (P10997 34-70 limits assumed): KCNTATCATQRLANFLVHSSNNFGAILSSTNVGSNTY
Experimental: Determination of the Rate of Amyloid Fibril Formation by Thioflavine T Spectroscopy
Detection of ThT fluorescence can be used as a sensitive assay for amyloid fibril formation under different conditions.
Synthetic human IAPP (Bachem) was dissolved in 40% trifluoroethanol and freeze-dried into conveniently-sized aliquots. IAPP was prepared immediately before the measurements by dissolving in 40% 1,1,1,3,3,3-hexafluoro-2-propanol (HFIP) in water to maintain the peptide in alpha helical conformation and soluble. A stock solution of ThT (2.5 mM) was prepared, 7.9 mg in 10 mL Tris-HCl pH 7.0 and filtered (0.22 μm). Solutions were kept in the dark until use. Fluorescence was examined at 440 nm excitation (slit 5 nm), and emission at 482 nm (slit 10 nm) with stirring. […] The sample was stirred for 5 min. before taking a reading. Measurements were made at an initial time point (5 min. from sample preparation), at intervals over the next 4-6 h and after overnight incubation at room temperature.

IAPP = target: T2, IAPP (Homo sapiens, UniProt P10997); experiment: Circular dichroism analysis of IAPP-associated fibril formation (β-sheet conformation), co-incubation procedure; assay type: biochemical; conditions: change in ellipticity at 218 nm vs peptide-only control; molar ratio 1:10 peptide:compound; water or 10 mM phosphate buffer pH 7; relative value active / not active
T2 construct: add 10 μL of 10 mg/mL IAPP stock solution (final 100 μg peptide)
T2 sequence (P10997 34-70 limits assumed): T1 sequence (P10997 34-70 limits assumed)
Experimental: Cell/cuvette: Hellma quartz (QS) with 1.0 mm pathlength
Wavelength interval: 250 nm-190 nm
Scanning speed: 20 nm/min
The assay, a co-incubation procedure, examines the ability of a compound or substance to inhibit the assembly of amyloid fibrils, e.g., to test for the presence of the amyloidotic β-sheet conformation in the presence of soluble IAPP. Samples are run in the presence and absence (i.e., water alone) of buffering agent, which is done to determine if competitive effects are seen with the ionic buffer (usually phosphate).
Add components used at a molar ratio of 1:10 [peptide:compound]; add 10 μL of 10 mg/mL IAPP stock solution (final 100 μg peptide) to the aqueous solution containing compound to a final volume of 400 μl. The pH of the final assay solution is measured to ensure there is no fluctuation and the spectrum is accumulated using the parameters as shown above.
Add desired amount of compound to achieve a 1:10 molar ratio in 10 mM phosphate buffer, pH 7. Add 10 μL of 10 mg/mL IAPP stock solution (final peptide 100 μg) to the phosphate buffered solution containing the compound and bring to a final volume of 400 μL. The pH of the final assay solution is measured to ensure there is no fluctuation and the spectrum is accumulated using the parameters as shown above.
In both assays, a control sample is run with each test group.
Make fresh 1 mg/mL stock solution of IAPP in 10 mM phosphate buffer, pH 7. Add desired amount of compound to achieve a 1:10 molar ratio in 10 mM phosphate buffer, pH 7. Incubate for 3 days at room temperature. Make up to final volume of 400 μL with 10 mM phosphate buffer, pH 7. The pH of the final assay solution is measured to ensure there is no fluctuation and the spectrum is accumulated using the parameters as shown above.
Plots of the spectra (control and treated) are individually assembled and the changes in ellipticity at 218 nm are examined. This minimum is directly correlated with the amount of β-sheet present in the sample.

Row | Activity (IAPP) | Structure (SMILES) | effect on IAPP-associated fibril assembly (ThT fluorescence) (Synthetic human IAPP)
1 | Active | O=S(=O)(O)CCCNCCCO [3-(3-hydroxy-1-propyl)amino-1-propanesulfonic acid] | inhibit or prevent IAPP-associated fibril assembly
2 | Active | NCC(O)CS(=O)(=O)O (stereo not drawn) [3-amino-2-hydroxy-1-propanesulfonic acid] | inhibit or prevent IAPP-associated fibril assembly
3 | Active | CN(C)CCCS(=O)(=O)O [3-dimethylamino-1-propanesulfonic acid] | inhibit or prevent IAPP-associated fibril assembly
4 | Active | COc1ccc(S(=O)(=O)[O-])c2cccnc12.[Na+] [8-methoxyquinoline-5-sulfonic acid, sodium salt] | inhibit or prevent IAPP-associated fibril assembly
5 | Active | N[C@@H](COP(=O)(O)O)C(=O)O [O-phospho-L-serine] | inhibit or prevent IAPP-associated fibril assembly
6 | Active | O=S(=O)([O-])NC1CCCCC1.[Na+] [cyclohexylsulfamic acid, sodium salt] | inhibit or prevent IAPP-associated fibril assembly

Row | Structure (SMILES) | Activity (IAPP) | effect on IAPP-associated fibril assembly (ThT fluorescence) (Synthetic human IAPP)
7 | Cl.c1ccc2c(c1)CCNC2 [1,2,3,4-tetrahydroisoquinoline, HCl] | Active | inhibit or prevent IAPP-associated fibril assembly
8 | O=S(=O)([O-])CCCN1CC=C(c2ccccc2)CC1.[Na+] [4-phenyl-1-(3′-sulfopropyl)-1,2,3,6-tetrahydropyridine, sodium salt] | Active | inhibit or prevent IAPP-associated fibril assembly
9 | O=C(O)C(F)(F)C(F)(F)C(F)(F)C(=O)O [hexafluoroglutaric acid] | Active | inhibit or prevent IAPP-associated fibril assembly
